Test results from patent US5332740A, “DC-89 derivatives” (priority 1990, dated 1994).

Key:
ddY-strain male mice = test: Acute Toxicity Test; format: in vivo; details: intraperitoneal; mortality observed for 14 days after the administration
Experimental: A test compound was intraperitoneally administered to ddY-strain male mice each weighing 20±1 g. MLD (the minimum lethal dose) was determined by observing the mortality for 14 days after the administration.

Sarcoma 180 tumor = test: Therapeutic Effect against Sarcoma 180 Tumor; format: in vivo, male ddY-strain mice; details: single intravenous, average tumor volume treated/control, seven days after implantation
Experimental: Therapeutic Effect against Sarcoma 180 Tumor
Five male ddY-strain mice each having a weight of 18 to 20 g were used for each group as test animals, and 5×10^5 Sarcoma 180 tumor cells were implanted subcutaneously into the animals at the axilla. One day after the implantation, 0.2 ml of physiological saline containing Compound (I) at the concentration indicated in Table 3 was intravenously administered to each mouse. T/C [T: average tumor volume (mm^3) of the group treated with the test compound, C: that of the control group which received an intravenous administration of 0.2 ml of physiological saline] was determined seven days after the implantation.

melanoma B-16 = details: against melanoma B-16; cited from earlier work
various bacteria = details: against various bacteria; cited from earlier work

| SMILES | Acute Toxicity (MLD), minimum lethal dose (ddY-strain male mice) [mg/kg] | anti-tumor activity (melanoma B-16) | antibacterial activity (various bacteria) | further results |
| --- | --- | --- | --- | --- |
| COC(=O)C1(C)Nc2c(OC(=O)N3CCN(C)CC3)cc3c(c2C1=O)CC(Br)CN3C(=O)c1cc2cc(OC)c(OC)c(OC)c2[nH]1 (stereo not shown) [Compound 2] | 5.2 |  |  | T/C (Sarcoma 180 tumor; dose 1.0 mg/kg): 0.19; T/C (Sarcoma 180 tumor; dose 2.0 mg/kg): 0.083 |
| COC(=O)C1(C)Nc2c(OC(=O)N3CCN(CCN)CC3)cc3c(c2C1=O)CC(Br)CN3C(=O)c1cc2cc(OC)c(OC)c(OC)c2[nH]1 (stereo not shown) [Compound 3] | 2.0 |  |  | T/C (Sarcoma 180 tumor; dose 0.50 mg/kg): 0.25; T/C (Sarcoma 180 tumor; dose 1.0 mg/kg, 1 mg/kg): 0.094 |
| COC(=O)C1(C)Nc2c(OC(=O)N3CCN(CCN)CC3)cc3c(c2C1=O)CC(Br)CN3C(=O)c1cc2cc(OC)c(OC)c(OC)c2[nH]1 (stereo not shown) [Compound 4] | 2.0 |  |  | T/C (Sarcoma 180 tumor; dose 1.0 mg/kg, 1 mg/kg): 0.047 |
| COC(=O)C1(C)Nc2c(OC(=O)N3CCC(N4CCCCC4)CC3)cc3c(c2C1=O)CC(Br)CN3C(=O)c1cc2cc(OC)c(OC)c(OC)c2[nH]1 (stereo not shown) [Compound 5] | 2.0 |  |  |  |
| COC(=O)C1(C)Nc2c(OC(=O)N3CCC(N4CCCCC4)CC3)cc3c(c2C1=O)CC(Br)CN3C(=O)c1cc2cc(OC)c(OC)c(OC)c2[nH]1 (stereo not shown) [Compound 6] | 4.0 |  |  |  |
| COC(=O)c1c(C)[nH]c2c(O[Si](C)(C)C(C)(C)C)cc3c(c12)CC(Br)CN3C(=O)c1cc2cc(OC)c(OC)c(OC)c2[nH]1 (stereo not shown) [Compound 7] | 4.0 |  |  | T/C (Sarcoma 180 tumor; dose 1.0 mg/kg): 0.13; T/C (Sarcoma 180 tumor; dose 2.0 mg/kg): 0.025 |
| COc1cc2cc(C(=O)N3CC(Br)Cc4c3cc(O[Si](C)(C)C(C)(C)C)c3[nH]c(C)cc43)[nH]c2c(OC)c1OC (stereo not shown) [Compound 8] | 8.0 |  |  | T/C (Sarcoma 180 tumor; dose 2.0 mg/kg): 0.19 |
| COc1cc2cc(C(=O)N3CC(Br)Cc4c3cc(OC(=O)N(C)C)c3[nH]c(C)cc43)[nH]c2c(OC)c1OC (stereo not shown) [Compound 9] | 0.50 |  |  | T/C (Sarcoma 180 tumor; dose 0.25 mg/kg): 0.15; T/C (Sarcoma 180 tumor; dose 0.50 mg/kg): 0.068 |
| COC(=O)c1c(C)[nH]c2c(O[Si](C)(C)C(C)(C)C)cc3c(c12)CC(Cl)CN3C(=O)c1cc2cc(OC)c(OC)c(OC)c2[nH]1 (stereo not shown) [Compound 10] | > 8.0 |  |  |  |
| COc1cc2cc(C(=O)N3CC(Cl)Cc4c3cc(O[Si](C)(C)C(C)(C)C)c3[nH]c(C)cc43)[nH]c2c(OC)c1OC (stereo not shown) [Compound 11] | > 8.0 |  |  |  |
| COC(=O)C1(C)Nc2c(OC(=O)N3CCN(C)CC3)cc3c(c2C1=O)CC(Cl)CN3C(=O)c1cc2cc(OC)c(OC)c(OC)c2[nH]1 (stereo not shown) [Compound 14] | > 16 |  |  |  |
| COC(=O)C1(C)NC2=C(C1=O)C13CC1CN(C(=O)c1cc4cc(OC)c(OC)c(OC)c4[nH]1)C3=CC2=O (stereo not shown) [DC-88A] |  | exhibits an anti-tumor activity against melanoma B-16 | shows an antibacterial activity against a variety of bacteria |  |
| COC(=O)C1(C)Nc2c(O)cc3c(c2C1=O)CC(Cl)CN3C(=O)c1cc2cc(OC)c(OC)c(OC)c2[nH]1 (stereo not shown) [DC-89A1] |  | show an anti-tumor activity against melanoma B-16 | exhibit an antibacterial activity against various bacteria |  |
| COC(=O)C1(C)Nc2c(O)cc3c(c2C1=O)C(CCl)CN3C(=O)c1cc2cc(OC)c(OC)c(OC)c2[nH]1 (stereo not shown) [DC-89A2] |  | show an anti-tumor activity against melanoma B-16 | exhibit an antibacterial activity against various bacteria |  |
| COC(=O)C1(C)Nc2c(O)cc3c(c2C1=O)CC(Br)CN3C(=O)c1cc2cc(OC)c(OC)c(OC)c2[nH]1 (stereo not shown) [DC-89B1] |  | show an anti-tumor activity against melanoma B-16 | exhibit an antibacterial activity against various bacteria |  |
| COC(=O)C1(C)Nc2c(O)cc3c(c2C1=O)C(CBr)CN3C(=O)c1cc2cc(OC)c(OC)c(OC)c2[nH]1 (stereo not shown) [DC-89B2] |  | show an anti-tumor activity against melanoma B-16 | exhibit an antibacterial activity against various bacteria |  |
